Assay results: the supplement of paper PMC12463676, “Small-molecule dissolution of stress granules by redox modulation benefits ALS models” (Nature Chemical Biology, 2025)

How the values were obtained:
lipoamide = compound: NC(=O)CCCCC1CCSS1 [lipoamide]; assay: thermal stability z-score vs DMSO; higher = more thermally stabilized by treatment; conditions: HeLa, lipoamide concentration 100 µM
Protocol: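 Cellular thermal proteome profiling in HeLa cells. Cells were treated with 100 µM lipoamide for 1 h, with or without 1 mM arsenate for a further 1 h, then heated to ten temperatures (37-66.3 °C), and soluble protein was quantified by TMT mass spectrometry relative to 0.1% DMSO controls. The thermal stability score (sum of log2 fold changes minus the abundance score) was transformed to a z-score; mean of n = 3 experiments.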

potassium arsenate = compound: O=[As]([O-])(O)O.[K+] [potassium arsenate]; assay: as above; conditions: HeLa; arsenate concentration 1 mM
Protocol: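 Cellular thermal proteome profiling in HeLa cells treated with 1 mM arsenate for 1 h (DMSO pretreatment), heated to ten temperatures (37-66.3 °C). Soluble protein was quantified by TMT mass spectrometry relative to DMSO controls; the thermal stability score was transformed to a z-score; mean of n = 3 experiments.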

[1] = arsenate co-treatment: 1 mM arsenate 1 h
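Note: each temperature applied for 3 min, abundance score taken as mean log2 fold change at the two lowest temperatures, z-score obtained by mean subtraction and division by SD.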

UniProt P11310, sequence (P11310 whole entry): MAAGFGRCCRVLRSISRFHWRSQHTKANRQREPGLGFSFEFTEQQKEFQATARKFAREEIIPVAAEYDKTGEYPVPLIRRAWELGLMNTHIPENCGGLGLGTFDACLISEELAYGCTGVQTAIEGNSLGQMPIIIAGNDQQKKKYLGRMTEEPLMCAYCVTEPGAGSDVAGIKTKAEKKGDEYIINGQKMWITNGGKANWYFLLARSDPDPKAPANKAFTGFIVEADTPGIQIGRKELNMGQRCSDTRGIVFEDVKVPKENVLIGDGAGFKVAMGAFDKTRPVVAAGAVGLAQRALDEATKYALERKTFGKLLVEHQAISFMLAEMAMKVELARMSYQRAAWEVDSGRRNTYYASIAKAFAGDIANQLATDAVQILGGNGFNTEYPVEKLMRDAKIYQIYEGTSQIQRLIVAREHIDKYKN
UniProt Q9BTE6, sequence (Q9BTE6 whole entry): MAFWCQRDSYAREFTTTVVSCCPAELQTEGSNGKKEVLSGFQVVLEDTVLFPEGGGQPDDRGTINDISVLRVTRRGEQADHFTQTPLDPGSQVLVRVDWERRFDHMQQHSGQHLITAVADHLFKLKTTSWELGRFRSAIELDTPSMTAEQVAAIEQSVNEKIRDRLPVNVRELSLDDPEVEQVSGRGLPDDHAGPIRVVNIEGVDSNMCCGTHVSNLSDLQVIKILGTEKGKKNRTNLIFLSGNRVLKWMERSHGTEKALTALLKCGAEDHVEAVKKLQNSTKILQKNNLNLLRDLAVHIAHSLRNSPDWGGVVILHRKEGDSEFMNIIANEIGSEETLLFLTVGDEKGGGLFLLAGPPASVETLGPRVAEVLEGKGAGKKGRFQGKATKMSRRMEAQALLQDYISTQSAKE
UniProt Q86V21, sequence (Q86V21 whole entry): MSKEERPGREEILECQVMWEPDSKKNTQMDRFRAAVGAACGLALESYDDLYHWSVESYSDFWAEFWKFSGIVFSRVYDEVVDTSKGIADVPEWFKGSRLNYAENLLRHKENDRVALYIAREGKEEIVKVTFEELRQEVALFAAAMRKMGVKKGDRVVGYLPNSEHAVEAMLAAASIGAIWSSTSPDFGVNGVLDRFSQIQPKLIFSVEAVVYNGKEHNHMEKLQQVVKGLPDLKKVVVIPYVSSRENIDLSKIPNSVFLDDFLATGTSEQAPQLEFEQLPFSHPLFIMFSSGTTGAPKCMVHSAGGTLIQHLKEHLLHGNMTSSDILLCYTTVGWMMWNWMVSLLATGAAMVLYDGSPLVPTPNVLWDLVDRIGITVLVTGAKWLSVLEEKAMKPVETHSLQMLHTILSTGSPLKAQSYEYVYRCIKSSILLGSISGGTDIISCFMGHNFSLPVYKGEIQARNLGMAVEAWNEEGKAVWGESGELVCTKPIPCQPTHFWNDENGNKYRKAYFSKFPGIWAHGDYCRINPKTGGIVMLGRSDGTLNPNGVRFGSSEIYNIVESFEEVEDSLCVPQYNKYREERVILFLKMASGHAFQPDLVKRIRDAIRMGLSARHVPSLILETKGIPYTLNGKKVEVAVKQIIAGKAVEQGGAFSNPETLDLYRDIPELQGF
UniProt Q709F0, sequence (Q709F0 whole entry): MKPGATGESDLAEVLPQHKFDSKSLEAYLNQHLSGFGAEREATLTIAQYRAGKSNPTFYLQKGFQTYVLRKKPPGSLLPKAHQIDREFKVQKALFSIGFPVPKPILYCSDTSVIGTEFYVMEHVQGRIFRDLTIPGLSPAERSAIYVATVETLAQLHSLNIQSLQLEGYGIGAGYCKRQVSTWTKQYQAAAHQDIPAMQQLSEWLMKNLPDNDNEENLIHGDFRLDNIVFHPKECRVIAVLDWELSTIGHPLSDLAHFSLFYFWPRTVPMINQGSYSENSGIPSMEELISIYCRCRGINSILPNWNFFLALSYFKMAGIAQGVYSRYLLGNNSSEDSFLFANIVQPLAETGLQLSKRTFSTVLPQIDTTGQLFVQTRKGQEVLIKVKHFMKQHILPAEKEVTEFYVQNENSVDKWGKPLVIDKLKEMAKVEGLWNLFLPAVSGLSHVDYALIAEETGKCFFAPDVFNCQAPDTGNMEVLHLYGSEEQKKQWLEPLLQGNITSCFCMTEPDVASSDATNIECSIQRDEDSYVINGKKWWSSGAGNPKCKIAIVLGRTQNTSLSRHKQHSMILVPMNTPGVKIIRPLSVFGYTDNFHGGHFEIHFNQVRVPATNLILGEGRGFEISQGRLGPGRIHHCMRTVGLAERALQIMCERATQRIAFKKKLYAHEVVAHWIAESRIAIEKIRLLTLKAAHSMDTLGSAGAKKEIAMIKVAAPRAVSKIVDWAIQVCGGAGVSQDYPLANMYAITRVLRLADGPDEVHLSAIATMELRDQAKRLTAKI
UniProt P28288, sequence (P28288 whole entry): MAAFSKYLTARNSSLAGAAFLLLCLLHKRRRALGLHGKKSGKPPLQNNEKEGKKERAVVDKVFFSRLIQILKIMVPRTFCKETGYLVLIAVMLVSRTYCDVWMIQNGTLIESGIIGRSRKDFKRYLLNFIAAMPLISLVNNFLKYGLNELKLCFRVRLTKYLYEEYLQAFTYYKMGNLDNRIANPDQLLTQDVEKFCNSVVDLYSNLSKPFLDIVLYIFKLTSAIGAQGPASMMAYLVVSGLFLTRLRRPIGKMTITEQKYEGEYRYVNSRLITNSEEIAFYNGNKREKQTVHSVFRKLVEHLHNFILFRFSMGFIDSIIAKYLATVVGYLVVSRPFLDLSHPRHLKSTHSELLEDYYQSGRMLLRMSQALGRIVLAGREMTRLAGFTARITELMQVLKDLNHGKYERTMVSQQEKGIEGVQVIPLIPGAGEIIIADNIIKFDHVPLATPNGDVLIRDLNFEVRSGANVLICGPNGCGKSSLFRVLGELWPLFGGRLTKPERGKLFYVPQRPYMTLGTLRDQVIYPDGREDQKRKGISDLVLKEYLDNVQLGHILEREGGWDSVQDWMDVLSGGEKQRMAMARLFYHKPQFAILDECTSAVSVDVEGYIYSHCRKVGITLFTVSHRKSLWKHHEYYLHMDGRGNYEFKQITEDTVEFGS
UniProt P21399, sequence (P21399 whole entry): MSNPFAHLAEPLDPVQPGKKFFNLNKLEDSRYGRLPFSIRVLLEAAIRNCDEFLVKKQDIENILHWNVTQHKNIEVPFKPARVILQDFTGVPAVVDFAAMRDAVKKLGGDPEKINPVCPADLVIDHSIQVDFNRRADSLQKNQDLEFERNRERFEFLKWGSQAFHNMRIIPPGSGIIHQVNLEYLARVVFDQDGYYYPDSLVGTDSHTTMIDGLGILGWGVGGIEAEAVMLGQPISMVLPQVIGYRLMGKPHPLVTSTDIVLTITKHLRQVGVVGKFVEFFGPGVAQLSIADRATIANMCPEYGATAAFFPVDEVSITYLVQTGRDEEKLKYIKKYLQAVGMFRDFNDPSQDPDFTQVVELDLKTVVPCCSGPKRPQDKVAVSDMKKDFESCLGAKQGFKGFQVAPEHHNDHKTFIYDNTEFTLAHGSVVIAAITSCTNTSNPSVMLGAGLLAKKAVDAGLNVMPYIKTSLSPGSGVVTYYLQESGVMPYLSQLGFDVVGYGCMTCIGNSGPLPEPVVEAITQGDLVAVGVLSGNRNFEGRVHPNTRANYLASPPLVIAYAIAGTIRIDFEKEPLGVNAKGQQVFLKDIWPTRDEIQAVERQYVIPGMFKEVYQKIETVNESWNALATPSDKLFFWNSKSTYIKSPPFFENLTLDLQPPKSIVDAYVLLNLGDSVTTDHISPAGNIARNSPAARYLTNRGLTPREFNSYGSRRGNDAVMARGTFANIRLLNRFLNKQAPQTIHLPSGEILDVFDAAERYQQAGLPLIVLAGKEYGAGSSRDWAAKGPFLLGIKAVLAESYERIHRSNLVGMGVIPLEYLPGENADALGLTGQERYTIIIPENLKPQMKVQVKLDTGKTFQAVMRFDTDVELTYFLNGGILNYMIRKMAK
UniProt Q8IZP0, sequence (Q8IZP0 whole entry): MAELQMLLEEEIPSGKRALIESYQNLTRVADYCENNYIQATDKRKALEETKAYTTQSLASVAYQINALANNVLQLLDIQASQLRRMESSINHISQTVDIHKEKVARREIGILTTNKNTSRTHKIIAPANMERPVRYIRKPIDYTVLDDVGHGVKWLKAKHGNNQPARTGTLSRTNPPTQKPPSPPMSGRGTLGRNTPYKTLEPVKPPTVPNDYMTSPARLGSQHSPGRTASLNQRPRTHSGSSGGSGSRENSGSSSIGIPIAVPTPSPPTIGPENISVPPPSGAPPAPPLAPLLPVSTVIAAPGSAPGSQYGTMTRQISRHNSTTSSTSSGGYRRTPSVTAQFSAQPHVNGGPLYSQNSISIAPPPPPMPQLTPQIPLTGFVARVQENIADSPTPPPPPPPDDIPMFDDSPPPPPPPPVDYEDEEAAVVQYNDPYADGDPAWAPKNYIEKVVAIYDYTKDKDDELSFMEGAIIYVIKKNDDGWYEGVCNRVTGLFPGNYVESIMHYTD
UniProt Q9NUJ1, sequence (Q9NUJ1 whole entry): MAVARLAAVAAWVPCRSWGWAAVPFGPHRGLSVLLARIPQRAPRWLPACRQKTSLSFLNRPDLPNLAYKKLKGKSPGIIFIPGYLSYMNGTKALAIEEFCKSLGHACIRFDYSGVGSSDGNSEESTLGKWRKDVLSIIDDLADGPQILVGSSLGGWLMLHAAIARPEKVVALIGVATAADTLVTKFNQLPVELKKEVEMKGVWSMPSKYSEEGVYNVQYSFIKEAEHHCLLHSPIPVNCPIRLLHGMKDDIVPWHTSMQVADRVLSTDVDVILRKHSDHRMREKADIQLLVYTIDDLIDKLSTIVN
UniProt Q8NFV4, sequence (Q8NFV4 whole entry): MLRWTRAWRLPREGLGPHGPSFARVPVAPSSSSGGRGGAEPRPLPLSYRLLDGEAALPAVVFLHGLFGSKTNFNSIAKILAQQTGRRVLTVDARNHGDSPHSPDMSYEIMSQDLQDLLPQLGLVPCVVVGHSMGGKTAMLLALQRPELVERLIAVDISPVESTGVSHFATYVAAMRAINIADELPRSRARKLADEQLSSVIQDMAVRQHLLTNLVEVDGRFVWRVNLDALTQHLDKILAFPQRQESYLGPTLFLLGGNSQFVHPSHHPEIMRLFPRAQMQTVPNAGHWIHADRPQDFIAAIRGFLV

Target	thermal stability z-score (lipoamide; [1])	thermal stability z-score (lipoamide; arsenate co-treatment: none)	thermal stability z-score (potassium arsenate)
A0A0B4J2A0|SHPK	-0.157	-0.0688	-0.112
A0A0C4DFX4|SRCAP	0.121	-0.226	-0.111
A0A087WV05|MYCBP	1.93	1.66	0.26
A0A087WZ62	0.00979	0.224	0.358
AAAS (UniProt Q9NRG9)	-0.373	-0.12	0.108
AACS (UniProt Q86V21)	-0.257	-0.135	0.635
AAGAB (UniProt Q6PD74)	0.334	0.843	2.05
AAK1 (UniProt Q2M2I8)	0.286	0.0193	0.0056
AAMDC (UniProt Q9H7C9)	1.03	0.608	0.207
AAMP (UniProt Q13685)	0.409	-0.389	0.924
AAR2 (UniProt Q9Y312)	-0.223	0.408	-0.912
AARS2 (UniProt Q5JTZ9)	-0.428	-0.143	-0.095
AARS (UniProt P49588)	-0.195	-0.297	-1.29
AARSD1 (UniProt Q9BTE6)	0.0117	0.0955	0.428
AASDHPPT (UniProt Q9NRN7)	0.269	0.269	-0.589
ABCA2 (UniProt Q9BZC7)	0.0542	0.0722	-0.0916
ABCB1 (UniProt P08183)	0.00691	0.00658	-0.039
ABCB6 (UniProt Q9NP58)	-0.585	-0.323	-0.252
ABCB7 (UniProt O75027)	0.117	0.0859	0.456
ABCB8 (UniProt Q9NUT2)	-0.84	-0.813	-1.1
ABCB10 (UniProt Q9NRK6)	0.329	0.173	-0.034
ABCC1 (UniProt P33527)	0.473	0.0236	-0.579
ABCC2 (UniProt Q92887)	1.06	1.14	-0.256
ABCC4 (UniProt O15439)	0.622	0.731	-0.0795

Target	thermal stability z-score (lipoamide; [1])	thermal stability z-score (lipoamide; arsenate co-treatment: none)	thermal stability z-score (potassium arsenate)
ABCC5 (UniProt O15440)	0.335	0.0156	-0.077
ABCD1 (UniProt P33897)	-0.752	-0.422	0.118
ABCD3 (UniProt P28288)	-0.0141	-0.0329	-0.13
ABCE1 (UniProt P61221)	0.0869	0.0991	-0.471
ABCF1 (UniProt Q8NE71)	-0.384	-0.353	1.14
ABCF2 (UniProt Q9UG63)	-0.652	-0.279	1.72
ABCF3 (UniProt Q9NUQ8)	-0.505	-0.0312	0.516
ABCG2 (UniProt Q9UNQ0)	0.0159	-0.208	1.12
ABHD6 (UniProt Q9BV23)	-1.6	-1.07	-0.179
ABHD10 (UniProt Q9NUJ1)	0.377	-0.241	-0.374
ABHD11 (UniProt Q8NFV4)	0.183	0.151	0.254
ABHD12 (UniProt Q8N2K0)	-0.435	-0.517	-0.351
ABHD14B (UniProt Q96IU4)	1.24	0.828	0.527
ABHD16A (UniProt O95870)	-0.193	-0.0821	1.11
ABHD17B (UniProt Q5VST6)	-0.119	0.135	-0.595
ABHD17C (UniProt Q6PCB6)	-0.923	-0.152	-0.29
ABI1 (UniProt Q8IZP0)	-0.715	-0.452	-0.656
ABI2 (UniProt Q9NYB9)	0.0724	0.978	0.72
ABL1 (UniProt P00519)	-0.261	-0.21	0.137
ABL2 (UniProt P42684)	-0.0711	-0.109	-0.0185
ABLIM1 (UniProt O14639)	0.77	1.47	-1.82
ABR (UniProt Q12979)	-0.754	-0.915	-0.555
ACAA1 (UniProt P09110)	-0.181	0.335	0.919
ACAA2 (UniProt P42765)	0.0666	0.0527	-0.24

Target	thermal stability z-score (lipoamide; [1])	thermal stability z-score (lipoamide; arsenate co-treatment: none)	thermal stability z-score (potassium arsenate)
ACACA (UniProt Q13085)	-0.534	-0.289	0.153
ACAD8 (UniProt Q9UKU7)	0.0722	-0.0632	-0.989
ACAD9 (UniProt Q9H845)	0.127	0.0316	-0.21
ACAD11 (UniProt Q709F0)	-0.363	0.0251	-0.343
ACADM (UniProt P11310)	0.376	0.186	-1.07
ACADS (UniProt P16219)	0.116	-1.16	-2.93
ACADSB (UniProt P45954)	0.39	0.509	0.00788
ACADVL (UniProt P49748)	-0.94	-1.06	-0.558
ACAP2 (UniProt Q15057)	-0.177	0.0236	-0.178
ACAT1 (UniProt P24752)	0.399	1.07	0.878
ACAT2 (UniProt Q9BWD1)	-0.0152	6.3e-05	-0.347
ACBD3 (UniProt Q9H3P7)	0.447	0.826	0.21
ACBD5 (UniProt Q5T8D3)	-1.5	-0.737	0.243
ACBD6 (UniProt Q9BR61)	-1.02	-0.756	-0.675
ACIN1 (UniProt Q9UKV3)	1.66	0.763	0.115
ACLY (UniProt P53396)	0.0389	-0.136	-0.944
ACO1 (UniProt P21399)	0.259	-0.252	-0.945
ACO2 (UniProt Q99798)	-0.488	-0.402	-1.08
ACOT7 (UniProt O00154)	0.237	0.304	-0.151
ACOT8 (UniProt O14734)	0.492	0.113	0.0313
ACOT9 (UniProt Q9Y305)	0.00609	0.283	-0.344
ACOT13 (UniProt Q9NPJ3)	-0.279	-0.198	-0.202
ACOX1 (UniProt Q15067)	0.516	0.379	0.389
ACP1 (UniProt P24666)	-0.147	-0.0266	-1.2
